# Data taken from patent US20230085307A1, “PYRIDAZINONE COMPOUND AND HERBICIDE” (NISSAN CHEMICAL CORPORATION, priority 2019, published 2023).
# How the values were obtained:
# southern crabgrass [1] = test: Test Example 4: herbicidal effect by soil treatment (Table 19, symbol F); format: in vivo, southern crabgrass (Digitaria ciliaris); settings: AAH 320 g/ha
# In short: (§1)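 Soil-surface application: an emulsion agent diluted with water to the predetermined dose is sprayed uniformly over seeds lying under roughly 1.5 cm of sterilized diluvial soil. Boxes stay in a greenhouse at 25° C. to 30° C. Three weeks later, each species is graded on previously defined criteria.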
# green foxtail [2] = test: Test Example 4: herbicidal effect by soil treatment (Table 19, symbol G); format: in vivo, green foxtail (Setaria viridis); settings: AAH 320 g/ha
# In short: as §1
# barnyard grass [3] = test: Test Example 4: herbicidal effect by soil treatment (Table 19, symbol H); format: in vivo, barnyard grass (Echinochloa crus-galli); settings: AAH 320 g/ha
# In short: as §1
# wild oat [4] = test: Test Example 4: herbicidal effect by soil treatment (Table 19, symbol I); format: in vivo, wild oat (Avena fatua); settings: AAH 320 g/ha
# In short: as §1
# blackgrass [5] = test: Test Example 4: herbicidal effect by soil treatment (Table 19, symbol J); format: in vivo, blackgrass (Alopecurus myosuroides); settings: AAH 320 g/ha
# In short: as §1
# Italian ryegrass [6] = test: Test Example 4: herbicidal effect by soil treatment (Table 19, symbol K); format: in vivo, Italian ryegrass (Lolium multiflorum); settings: AAH 320 g/ha
# In short: as §1
# windgrass [7] = test: Test Example 4: herbicidal effect by soil treatment (Table 19, symbol L); format: in vivo, windgrass (Apera spica-venti); settings: AAH 320 g/ha
# In short: as §1
# velvetleaf [8] = test: Test Example 4: herbicidal effect by soil treatment (Table 19, symbol M); format: in vivo, velvetleaf (Abutilon theophrasti); settings: AAH 320 g/ha
# In short: as §1
# redroot pigweed [9] = test: Test Example 4: herbicidal effect by soil treatment (Table 19, symbol N); format: in vivo, redroot pigweed (Amaranthus retroflexus); settings: AAH 320 g/ha
# In short: as §1
# lambsquarters [10] = test: Test Example 4: herbicidal effect by soil treatment (Table 19, symbol O); format: in vivo, lambsquarters (Chenopodium album); settings: AAH 320 g/ha
# In short: as §1
# chickweed [11] = test: Test Example 4: herbicidal effect by soil treatment (Table 19, symbol P); format: in vivo, common chickweed (Stellaria media); settings: AAH 320 g/ha
# In short: as §1
# persian speedwell [12] = test: Test Example 4: herbicidal effect by soil treatment (Table 19, symbol R); format: in vivo, Persian speedwell (Veronica persica); settings: AAH 320 g/ha
# In short: as §1
# southern crabgrass [13] = test: Test Example 5: herbicidal effect by foliage application, plastic box (Table 20, symbol F); format: in vivo, southern crabgrass (Digitaria ciliaris); settings: foliage application, AAH 320 g/ha, three weeks after application
# In short: (§2)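 Sow seeds spot-wise in sterilized diluvial soil; cover with ~1.5 cm soil. Grow 14 days in greenhouse, 25° C. to 30° C. Spray foliage with emulsion diluted to predetermined amount. Rate effect after 3 weeks.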
# green foxtail [14] = test: Test Example 5: herbicidal effect by foliage application, plastic box (Table 20, symbol G); format: in vivo, green foxtail (Setaria viridis); settings: foliage application, AAH 320 g/ha, three weeks after application
# In short: as §2
# barnyard grass [15] = test: Test Example 5: herbicidal effect by foliage application, plastic box (Table 20, symbol H); format: in vivo, barnyard grass (Echinochloa crus-galli); settings: foliage application, AAH 320 g/ha, three weeks after application
# In short: as §2
# wild oat [16] = test: Test Example 5: herbicidal effect by foliage application, plastic box (Table 20, symbol I); format: in vivo, wild oat (Avena fatua); settings: foliage application, AAH 320 g/ha, three weeks after application
# In short: as §2
# blackgrass [17] = test: Test Example 5: herbicidal effect by foliage application, plastic box (Table 20, symbol J); format: in vivo, blackgrass (Alopecurus myosuroides); settings: foliage application, AAH 320 g/ha, three weeks after application
# In short: as §2
# Italian ryegrass [18] = test: Test Example 5: herbicidal effect by foliage application, plastic box (Table 20, symbol K); format: in vivo, Italian ryegrass (Lolium multiflorum); settings: foliage application, AAH 320 g/ha, three weeks after application
# In short: as §2
# windgrass [19] = test: Test Example 5: herbicidal effect by foliage application, plastic box (Table 20, symbol L); format: in vivo, windgrass (Apera spica-venti); settings: foliage application, AAH 320 g/ha, three weeks after application
# In short: as §2
# velvetleaf [20] = test: Test Example 5: herbicidal effect by foliage application, plastic box (Table 20, symbol M); format: in vivo, velvetleaf (Abutilon theophrasti); settings: foliage application, AAH 320 g/ha, three weeks after application
# In short: as §2
# redroot pigweed [21] = test: Test Example 5: herbicidal effect by foliage application, plastic box (Table 20, symbol N); format: in vivo, redroot pigweed (Amaranthus retroflexus); settings: foliage application, AAH 320 g/ha, three weeks after application
# In short: as §2
# lambsquarters [22] = test: Test Example 5: herbicidal effect by foliage application, plastic box (Table 20, symbol O); format: in vivo, lambsquarters (Chenopodium album); settings: foliage application, AAH 320 g/ha, three weeks after application
# In short: as §2
# chickweed [23] = test: Test Example 5: herbicidal effect by foliage application, plastic box (Table 20, symbol P); format: in vivo, common chickweed (Stellaria media); settings: foliage application, AAH 320 g/ha, three weeks after application
# In short: as §2
# persian speedwell [24] = test: Test Example 5: herbicidal effect by foliage application, plastic box (Table 20, symbol R); format: in vivo, Persian speedwell (Veronica persica); settings: foliage application, AAH 320 g/ha, three weeks after application
# In short: as §2
compound,measurement,setting,value
Cc1nn(C)c(=O)c(-c2c(-c3ccc(OS(=O)(=O)C(F)(F)F)cc3)sc3ccccc23)c1O [1-147],"F: southern crabgrass, herbicidal effect rating",southern crabgrass [1],0 (Herbicidal rate of 5% or less (almost no effect))
same,"G: green foxtail, herbicidal effect rating",green foxtail [2],0 (Herbicidal rate of 5% or less (almost no effect))
same,"H: barnyard grass, herbicidal effect rating",barnyard grass [3],0 (Herbicidal rate of 5% or less (almost no effect))
same,"I: wild oat, herbicidal effect rating",wild oat [4],0 (Herbicidal rate of 5% or less (almost no effect))
same,"J: blackgrass, herbicidal effect rating",blackgrass [5],0 (Herbicidal rate of 5% or less (almost no effect))
same,"K: Italian ryegrass, herbicidal effect rating",Italian ryegrass [6],0 (Herbicidal rate of 5% or less (almost no effect))
same,"L: windgrass, herbicidal effect rating",windgrass [7],0 (Herbicidal rate of 5% or less (almost no effect))
same,"M: velvetleaf, herbicidal effect rating",velvetleaf [8],0 (Herbicidal rate of 5% or less (almost no effect))
same,"N: redroot pigweed, herbicidal effect rating",redroot pigweed [9],2 (Herbicidal rate of 20% or more and less than 40%)
same,"O: lambsquarters, herbicidal effect rating",lambsquarters [10],3 (Herbicidal rate of 40% or more and less than 70%)
same,"P: chickweed, herbicidal effect rating",chickweed [11],5 (Herbicidal rate of 90% or more (almost completely withered))
same,"R: persian speedwell, herbicidal effect rating",persian speedwell [12],5 (Herbicidal rate of 90% or more (almost completely withered))
same,"F: southern crabgrass, herbicidal effect",southern crabgrass [13],0 (Herbicidal rate of 5% or less (almost no effect))
same,"G: green foxtail, herbicidal effect",green foxtail [14],0 (Herbicidal rate of 5% or less (almost no effect))
same,"H: barnyard grass, herbicidal effect",barnyard grass [15],0 (Herbicidal rate of 5% or less (almost no effect))
same,"I: wild oat, herbicidal effect",wild oat [16],0 (Herbicidal rate of 5% or less (almost no effect))
same,"J: blackgrass, herbicidal effect",blackgrass [17],0 (Herbicidal rate of 5% or less (almost no effect))
same,"K: Italian ryegrass, herbicidal effect",Italian ryegrass [18],0 (Herbicidal rate of 5% or less (almost no effect))
same,"L: windgrass, herbicidal effect",windgrass [19],0 (Herbicidal rate of 5% or less (almost no effect))
same,"M: velvetleaf, herbicidal effect",velvetleaf [20],1 (Herbicidal rate of 5% or more and less than 20%)
same,"N: redroot pigweed, herbicidal effect",redroot pigweed [21],0 (Herbicidal rate of 5% or less (almost no effect))
same,"O: lambsquarters, herbicidal effect",lambsquarters [22],2 (Herbicidal rate of 20% or more and less than 40%)
same,"P: chickweed, herbicidal effect",chickweed [23],5 (Herbicidal rate of 90% or more (almost completely withered))
same,"R: persian speedwell, herbicidal effect",persian speedwell [24],5 (Herbicidal rate of 90% or more (almost completely withered))
